According to paper PMC13087252, “A CXCR4 targeting peptide delivered by silica nanoparticles eliminates migrating cancer stem cells in pancreatic ductal adenocarcinoma” (Scientific Reports, 2026):

Experiments:
[1] = test system: CD133+ CSCs in Panc354 and MetPO1 cells; test: Flow cytometry for CD133 after combination treatment; assay type: cell-based, human; details: flow cytometry after 12 days of treatment, fold change
Description: For surface protein staining, 1 × 10^6 cells were resuspended in 100µl ice-cold FACS buffer supplemented with 6 µl Gamunex for 15 min at 4 °C. Cells were then incubated with CD133 (PE, Miltenyi Biotec, #130-113-108, RRID: AB_2725937) and CXCR4 (APC, eBioscience, #17-9999-42, RRID: AB_1724113) antibodies or an appropriate isotype control for 30 min at 4 °C. After a PBS wash, cells were resuspended in 500µl of ice-cold FACS buffer with DAPI in FACS tubes for analysis.
(§1) (A) Migration assays towards CXCL12 using Panc354 for EPI-X4 and its derivatives at depicted concentrations. […] (D) Quantifications of percent mesenchymal structures after 15 min and 6 h of CXCL12 treatment in MetPO1 cells. […] Intensity ratios (IR) calculated against control lane using ImageJ. […] Quantification of cell viability and representative pictures for clonogenic assays after treatment with JM#21 (10 μM), gemcitabine (Gem) for indicated concentrations as depicted in experimental design in MetPO1 cell line. […]
We then evaluated the therapeutic potential of JM#21. […] Since we have previously shown the role of CSCs in chemoresistance and the benefit of combination therapy for PDAC in vitro and in vivo[6],[38]–[40], we proceeded to evaluate the role of CSCs in the above-mentioned combination treatment and used flow cytometry to quantify CD133 + CSCs after 12 days of treatment (Fig. 5J, Supp. Figure 3I). […]

Panc354 = test: Transwell migration assay towards CXCL12 (serum-free, B27); assay type: cell-based, human; details: 8 μm pore inserts, CXCL12 10 nM as chemoattractant, 30 min peptide pre-treatment, 24 h, B27 as serum substitute, dose-dependent, largest suppression, n = 3
Description: Migration assays were performed using inserts with 8μm pore size PET membranes (Corning, 353,097). Serum (10% FBS) or CXCl12 (10nM) was used in the companion plates as chemoattractant. After 24 h, invaded cells were fixed with 4% PFA and stained with DAPI (Merck, 10,236,276,001). Ten random 10 × fields were chosen and photographed (Keyence), and the pictures were quantified using ImageJ (RRID:SCR_003070).
The CXCL12 – CXCR4 axis regulates a bidirectional tumor-stromal signaling loop that ultimately promotes CSCs and miCSCs and their metastatic and chemoresistant phenotypes. Therefore, targeting CXCR4 may provide a significant improvement in the anticancer therapeutic efficacy. The Endogenous Peptide Inhibitor of CXCR4 (EPI-X4) is a natural antagonist of CXCR4, previously discovered in a human peptide library screen. […]
as §1

Compound | CD133+ population in relapsed cells [1] | suppression of CXCL12-induced migration (Panc354)
Nc1ccn([C@@H]2O[C@H](CO)[C@@H](O)C2(F)F)c(=O)n1 [gemcitabine] | significant increase | 
EPI-X4: Endogenous Peptide Inhibitor of CXCR4, a natural antagonist of CXCR4 from a human peptide library screen (PQNLIKQNCELFEQLG; UniProt P02768 408-423, looked up, fragment) |  | approx. 50%
